Assay results published in ChEMBL document CHEMBL1143642, “Preparation of 3-spirocyclic indolin-2-ones as ligands for the ORL-1 receptor” (Bioorg Med Chem Lett, 2005).

What was measured:
Format in all cases: cell-based
Nociceptin receptor [1] = molecular target: T1, Nociceptin receptor (Homo sapiens, UniProt P41146); experiment: Binding affinity determined by the ability to compete with [125I]-Tyr14- nociceptin from binding to human opiate receptor-like 1 expressed in HEK293 cells
[2] = molecular target: Delta-type opioid receptor (Homo sapiens, UniProt P41143); experiment: Binding affinity against human opioid receptor delta 1 expressed in HEK293 cells using [3H]DDPDE radioligand
Chain of Delta-type opioid receptor (P41143 whole entry): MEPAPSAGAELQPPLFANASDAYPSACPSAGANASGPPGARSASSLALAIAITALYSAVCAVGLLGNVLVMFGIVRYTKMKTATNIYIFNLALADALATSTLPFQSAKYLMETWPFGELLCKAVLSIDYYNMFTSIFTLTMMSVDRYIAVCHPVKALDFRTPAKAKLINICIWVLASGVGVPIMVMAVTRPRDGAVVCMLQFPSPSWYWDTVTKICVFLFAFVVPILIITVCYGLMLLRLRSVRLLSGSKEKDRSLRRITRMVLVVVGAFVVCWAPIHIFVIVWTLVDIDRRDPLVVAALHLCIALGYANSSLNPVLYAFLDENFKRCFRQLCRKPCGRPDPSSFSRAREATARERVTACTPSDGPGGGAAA

Nociceptin receptor [3] = molecular target: T1, Nociceptin receptor; experiment: Ability to inhibit calcium flux in HEK293 cells overexpresses human opiate receptor-like 1 in the presence of 100 nM nociceptin
Mu-type opioid receptor = Mu-type opioid receptor (Homo sapiens, UniProt P35372); experiment: Binding affinity against human opioid receptor mu 1 expressed in HEK293 cells using [3H]DAMGO radioligand
Chain of Mu-type opioid receptor (P35372 whole entry): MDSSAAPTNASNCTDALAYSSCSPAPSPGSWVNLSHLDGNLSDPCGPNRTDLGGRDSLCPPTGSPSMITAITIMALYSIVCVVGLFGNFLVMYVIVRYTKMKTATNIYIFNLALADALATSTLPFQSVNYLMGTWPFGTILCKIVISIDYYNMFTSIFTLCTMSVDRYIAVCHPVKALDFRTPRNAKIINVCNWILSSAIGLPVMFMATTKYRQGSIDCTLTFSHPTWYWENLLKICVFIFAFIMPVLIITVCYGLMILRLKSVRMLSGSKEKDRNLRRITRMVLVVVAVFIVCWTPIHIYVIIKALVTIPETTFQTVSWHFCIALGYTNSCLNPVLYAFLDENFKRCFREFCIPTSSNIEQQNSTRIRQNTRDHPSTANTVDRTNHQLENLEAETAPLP

[4] = molecular target: Kappa-type opioid receptor (Homo sapiens, UniProt P41145); experiment: Binding affinity against human opioid receptor kappa 1 expressed in HEK293 cells using 3H-U69,593 radioligand
Chain of Kappa-type opioid receptor (P41145 whole entry): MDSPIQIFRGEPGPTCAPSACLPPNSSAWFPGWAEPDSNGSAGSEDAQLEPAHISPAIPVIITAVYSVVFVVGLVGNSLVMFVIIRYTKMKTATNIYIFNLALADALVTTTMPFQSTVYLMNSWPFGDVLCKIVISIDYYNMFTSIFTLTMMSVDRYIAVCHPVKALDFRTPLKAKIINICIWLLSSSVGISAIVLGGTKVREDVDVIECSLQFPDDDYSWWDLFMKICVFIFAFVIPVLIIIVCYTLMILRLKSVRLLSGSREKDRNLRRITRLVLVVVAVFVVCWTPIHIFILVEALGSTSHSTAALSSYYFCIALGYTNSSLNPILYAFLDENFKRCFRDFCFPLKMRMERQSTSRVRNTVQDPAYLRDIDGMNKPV

T1 sequence (P41146 whole entry): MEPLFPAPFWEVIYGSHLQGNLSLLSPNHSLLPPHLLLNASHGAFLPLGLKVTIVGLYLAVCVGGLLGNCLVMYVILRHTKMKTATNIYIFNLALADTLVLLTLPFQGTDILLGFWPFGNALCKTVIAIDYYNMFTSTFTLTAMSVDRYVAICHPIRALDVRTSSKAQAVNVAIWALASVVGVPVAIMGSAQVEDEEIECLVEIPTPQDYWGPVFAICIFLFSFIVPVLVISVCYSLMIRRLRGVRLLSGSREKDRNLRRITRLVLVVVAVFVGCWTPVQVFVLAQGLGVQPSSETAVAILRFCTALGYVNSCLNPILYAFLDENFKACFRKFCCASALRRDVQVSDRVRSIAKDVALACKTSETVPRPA

For COC(=O)CN1C(=O)C2(CCN(Cc3ccccc3-c3ccsc3)CC2)c2ccccc21, the IC50 (Nociceptin receptor [1]) was 10 µM.
COC(=O)CN1C(=O)C2(CCN(Cc3ccc(-c4ccccc4)cc3)CC2)c2ccccc21 was tested, and the IC50 (Nociceptin receptor [1]) was 10 µM.
With COC(=O)CN1C(=O)C2(CCN(C(=O)CCC(=O)c3ccccc3)CC2)c2ccccc21 the IC50 (Nociceptin receptor [1]) was > 10 µM.
With CC(=O)OCCN1C(=O)C2(CCN(CC3CCCCCCC3)CC2)c2ccccc21 the IC50 [2] was > 10 µM.
For CCN1C(=O)C2(CCN(CC3CCCCCCC3)CC2)c2ccc(OC)cc21, the IC50 [2] was > 10 µM.
With COC(=O)CN1C(=O)C2(CCN(c3ccc4c5c(cccc35)CC4)CC2)c2ccccc21 the IC50 (Nociceptin receptor [1]) was 0.35 µM.
Work on Cc1ccc2c(c1)C1(CCN(CC3CCCCCCC3)CC1)C(=O)N2C yielded an IC50 [2] of 9.4 µM.
In the case of CC(C)c1ccc2c(c1)C1(CCN(CC3CCCCCCC3)CC1)C(=O)N2C, the IC50 [2] is reported as > 10 µM.
With O=C1Nc2ccccc2C12CCN(CC1CCCCCCC1)CC2 the inhibition (Nociceptin receptor [3]) was 45% and the IC50 [2] was > 10 µM.
With CCN(Cc1ccc(C)cc1)CC(O)CN1C(=O)C2(CCN(CC3CCCCCCC3)CC2)c2ccccc21 (centres undefined) the IC50 [2] was > 10 µM.
For COC(=O)CN1C(=O)C2(CCN(CC3CCCCCCC3)CC2)c2ccccc21, the IC50 [2] was > 10 µM.
For Cc1cccc2c1C1(CCN(CC3CCCCCCC3)CC1)C(=O)N2C, the inhibition (Nociceptin receptor [3]) was 81% and the IC50 [2] was > 10 µM.
COc1ccc2c(c1)N(CC1CC1)C(=O)C21CCN(CC2CCCCCCC2)CC1 was tested, and the IC50 (Mu-type opioid receptor) was 10 µM, the IC50 [2] was > 10 µM and the IC50 [4] was > 10 µM. The IC50 (Nociceptin receptor [1]) was > 10 µM.
For O=C1N(CC(O)CNCCN2CCOCC2)c2ccccc2C12CCN(CC1CCCCCCC1)CC2 (centres undefined), the IC50 [2] was > 10 µM.
O=C1N(Cc2ccccc2)c2ccccc2C12CCN(CC1CCCCCCC1)CC2 was tested, and the IC50 [2] was > 10 µM.
COc1ccc2c(c1)N(C)C(=O)C21CCN(CC2CCCCCCC2)CC1 was tested, and the IC50 [2] was > 10 µM.
Cc1ccc2c(c1)N(C)C(=O)C21CCN(CC2CCCCCCC2)CC1 was tested, and the inhibition (Nociceptin receptor [3]) was 48%.
With O=C(O)CN1C(=O)C2(CCN(CC3CCCCCCC3)CC2)c2ccccc21 the IC50 (Nociceptin receptor [1]; hek293) was < 10 µM.
In the case of COC(=O)CN1C(=O)C2(CCN(C(=O)C3CCC(OC)CC3)CC2)c2ccccc21 (centres undefined), the IC50 (Nociceptin receptor [1]) is reported as > 10 µM.
For O=C1N(CC2CO2)c2ccccc2C12CCN(CC1CCCCCCC1)CC2 (centres undefined), the IC50 [2] was > 10 µM.
Molecule COC(=O)CN1C(=O)C2(CCN(C(C)c3ccccc3)CC2)c2ccccc21 (centres undefined) has an IC50 (Nociceptin receptor [1]) of 10 µM.
With CN1C(=O)C2(CCN(CC3CCCCCCC3)CC2)c2cc(F)ccc21 the inhibition (Nociceptin receptor [3]) was 66%.
With CCCCCCC(CCCC)CN1CCC2(CC1)C(=O)N(CC(=O)OC)c1ccccc12 (centres undefined) the IC50 (Nociceptin receptor [1]) was 10 µM.
In the case of CN1C(=O)C2(CCN(CC3CCCCCCC3)CC2)c2ccccc21, the IC50 [2] is reported as > 10 µM.
